Numbering of substitutions follows the chain as printed. pIC50, pKd: −log10 of the molar value.
Legend:
[1] = Inhibition of Cryptosporidium hominis TS-DHFR by spectroscopic assay
[2] = Binding affinity to Cryptosporidium hominis TS-DHFR by burst amplitude assay
[3] = system: T1, Dihydrofolate reductase (Cryptosporidium hominis), Q27552 [R190G]; experiment: Inhibition of Cryptosporidium hominis DHFR R190G mutant; design: scale not given: the % may be the effect or the level left
T1 sequence (whole entry): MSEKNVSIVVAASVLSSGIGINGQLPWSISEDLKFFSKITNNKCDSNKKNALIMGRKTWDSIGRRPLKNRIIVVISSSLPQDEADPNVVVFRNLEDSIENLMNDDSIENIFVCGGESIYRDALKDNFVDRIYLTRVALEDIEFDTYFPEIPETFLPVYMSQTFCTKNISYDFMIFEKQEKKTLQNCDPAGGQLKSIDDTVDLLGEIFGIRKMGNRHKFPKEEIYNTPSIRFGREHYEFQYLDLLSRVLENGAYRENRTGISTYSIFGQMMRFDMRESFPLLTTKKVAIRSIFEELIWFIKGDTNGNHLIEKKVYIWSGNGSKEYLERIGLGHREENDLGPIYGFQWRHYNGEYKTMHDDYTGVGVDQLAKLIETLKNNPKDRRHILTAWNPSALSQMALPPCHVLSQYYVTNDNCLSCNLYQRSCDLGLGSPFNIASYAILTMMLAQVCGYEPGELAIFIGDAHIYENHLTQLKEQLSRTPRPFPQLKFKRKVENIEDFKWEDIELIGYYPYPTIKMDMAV

[4] = Inhibition of Cryptosporidium hominis 80 to 250 nM TS-DHFR by spectroscopic assay
Thymidylate synthase = Thymidylate synthase (Homo sapiens, UniProt P04818); experiment: Inhibition of human thymidylate synthase
Cryptosporidium hominis [5] = settings: 200 uM
Description: Activity at Cryptosporidium hominis DHFR at 200 uM using dihydrofolate substrate by steady state competition assay

[6] = system: T2, Dihydrofolate reductase (Cryptosporidium hominis), Q27552 [D201A]; experiment: Inhibition of Cryptosporidium hominis DHFR D201A mutant; design: scale not given: the % may be the effect or the level left
T2 sequence (whole entry): T1 sequence (whole entry) with G190R, D201A

Cryptosporidium hominis [7] = settings: 200 uM; remark: listed apart in the source
Description: Activity at Cryptosporidium hominis DHFR at 200 uM using NADPH substrate by steady state competition assay

[8] = molecular target: T3, Bifunctional dihydrofolate reductase-thymidylate synthase (Toxoplasma gondii, UniProt Q07422); experiment: Inhibition of Toxoplasma gondii TS-DHFR
T3 sequence (Q07422 whole entry): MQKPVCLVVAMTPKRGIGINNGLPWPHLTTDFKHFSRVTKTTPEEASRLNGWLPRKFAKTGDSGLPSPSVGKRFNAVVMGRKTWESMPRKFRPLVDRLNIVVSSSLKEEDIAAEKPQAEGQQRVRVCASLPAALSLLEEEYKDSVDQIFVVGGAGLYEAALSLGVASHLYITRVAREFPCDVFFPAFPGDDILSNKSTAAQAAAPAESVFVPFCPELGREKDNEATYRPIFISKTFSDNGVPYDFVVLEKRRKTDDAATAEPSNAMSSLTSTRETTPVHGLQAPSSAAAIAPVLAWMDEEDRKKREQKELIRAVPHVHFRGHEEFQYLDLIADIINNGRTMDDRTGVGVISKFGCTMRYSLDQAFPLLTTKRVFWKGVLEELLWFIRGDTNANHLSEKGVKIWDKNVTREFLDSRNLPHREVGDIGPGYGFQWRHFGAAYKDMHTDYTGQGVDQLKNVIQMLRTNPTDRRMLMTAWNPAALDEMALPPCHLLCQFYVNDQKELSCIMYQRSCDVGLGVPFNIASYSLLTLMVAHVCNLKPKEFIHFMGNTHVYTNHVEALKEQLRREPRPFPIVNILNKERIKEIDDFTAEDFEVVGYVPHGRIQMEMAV

Dihydrofolate reductase = molecular target: T4, Dihydrofolate reductase (Homo sapiens, UniProt P00374); experiment: Inhibition of human DHFR
T4 sequence (P00374 whole entry): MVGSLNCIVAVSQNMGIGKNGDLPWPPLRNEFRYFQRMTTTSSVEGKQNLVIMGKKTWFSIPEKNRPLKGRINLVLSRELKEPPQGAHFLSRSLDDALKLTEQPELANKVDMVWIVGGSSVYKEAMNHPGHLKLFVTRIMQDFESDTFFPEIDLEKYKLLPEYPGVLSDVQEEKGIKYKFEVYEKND

Thymidylate synthase, sequence (P04818 whole entry): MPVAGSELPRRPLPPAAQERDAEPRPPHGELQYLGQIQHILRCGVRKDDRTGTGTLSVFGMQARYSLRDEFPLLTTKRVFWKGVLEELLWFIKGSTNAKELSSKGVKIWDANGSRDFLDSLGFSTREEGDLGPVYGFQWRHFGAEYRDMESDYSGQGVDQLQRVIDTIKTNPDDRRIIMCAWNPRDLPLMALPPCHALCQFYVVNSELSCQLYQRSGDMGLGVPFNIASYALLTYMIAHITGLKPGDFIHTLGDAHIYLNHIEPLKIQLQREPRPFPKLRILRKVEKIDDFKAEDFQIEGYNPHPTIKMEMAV

Q: With `COC1=C(N)C(=O)c2nc(-c3nc(C(=O)O)c(C)c(-c4ccc(OC)c(OC)c4O)c3N)ccc2C1=O` [STREPTONIGRIN] as the compound, how does the pIC50 [1] read?
A: 4.10

Q: What does the source list for `Cc1cc2nc3c(=O)[nH]c(=O)nc-3n(C[C@H](O)[C@H](O)[C@H](O)COP(=O)(O)O)c2cc1C` [RIBOFLAVIN 5'-PHOSPHATE]?
A: pKd [2]: 4.32; Activity [3]: 20%; pIC50 [1]: 4.26; pIC50 [4]: 4.26; pIC50 (Thymidylate synthase): < 3.30; Km (Cryptosporidium hominis [5]): 7.2 µM; Vmax (Cryptosporidium hominis [5]): 1.8 µmol/min; Activity [6]: 10%; Km (Cryptosporidium hominis [7]): 3 µM; Vmax (Cryptosporidium hominis [7]): 1.77 µmol/min; pIC50 [8]: < 3.30; pIC50 (Dihydrofolate reductase): 3.49

Q: With `COc1cccc2c1C(=O)C1=C(C2=O)C(O)C2=C(C1O)[C@@H](C[C@@H]1C[C@H](N)[C@@H](O)[C@H](C)O1)C[C@@](O)(/C(C)=N/NC(=O)c1ccccc1)C2` (some centres not stated) [RUBIDAZONE] as the compound, how does the pIC50 [1] read?
A: < 3.30

Q: With `CC(=O)N[C@@H]1[C@@H](O)[C@H](O[C@@H]2O[C@H](CO)[C@@H](O)[C@H](O)[C@H]2NC(C)=O)[C@@H](CO)O[C@H]1O` [CHITODEXTRIN] as the compound, how does the pIC50 [1] read?
A: < 3.30

Q: With `CC(=O)N1CCN(c2ccc(OCC3COC(Cn4ccnc4)(c4ccc(Cl)cc4Cl)O3)cc2)CC1` (configuration not stated) [KETOCONAZOLE] as the compound, how does the pIC50 [1] read?
A: < 3.30

Q: With `C[C@H]1O[C@@H](O[C@H]2[C@@H](O)C[C@H](O[C@H]3[C@@H](O)C[C@H](O[C@H]4CC[C@@]5(C)[C@H](CC[C@@H]6[C@@H]5C[C@@H](O)[C@]5(C)[C@@H](C7=CC(=O)OC7)CC[C@]65O)C4)O[C@@H]3C)O[C@@H]2C)C[C@H](O)[C@@H]1O` [DIGOXIN] as the compound, how does the pIC50 [1] read?
A: < 3.30

Reference: ChEMBL document CHEMBL1154526, “Novel non-active site inhibitor of Cryptosporidium hominis TS-DHFR identified by a virtual screen” (Bioorg Med Chem Lett, 2009)
